Patent EP0726261A1, “Herbidical 1,2,4 thiadiazoles” (American Cyanamid Company, priority 1995, dated 1996)

Assays:
Assay type in all cases: in vivo
Alopecurus myosuroides [1] = test: Preemergence herbicidal activity (Example 67); details: pre, 800 g/ha
Method in brief: (§1)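 Test solutions in acetone with 0.5% TRITON X-155, diluted with water, sprayed at 800g/ha (400 L/ha) onto the soil surface of seeded cups. Cups kept under greenhouse conditions and rated on a standard scale about 1-3 weeks after treatment.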

Amaranthus retroflexus [2] = test: Preemergence herbicidal activity (Example 67); details: pre, 800 g/ha
Method in brief: as §1

Ipomoea hederacea [3] = test: Preemergence herbicidal activity (Example 67); details: pre, 800 g/ha
Method in brief: as §1

Veronica persica [4] = test: Preemergence herbicidal activity (Example 67); details: pre, 800 g/ha
Method in brief: as §1

Chenopodium album [5] = test: Preemergence herbicidal activity (Example 67); details: pre, 800 g/ha
Method in brief: as §1

Abutilon theophrasti [6] = test: Preemergence herbicidal activity (Example 67); details: pre, 800 g/ha
Method in brief: as §1

Zea mays [7] = test: Preemergence herbicidal activity (Example 67); details: pre, 800 g/ha
Method in brief: as §1

Galium aparine [8] = test: Preemergence herbicidal activity (Example 67); details: pre, 800 g/ha
Method in brief: as §1

Helianthus annuus [9] = test: Preemergence herbicidal activity (Example 67); details: pre, 800 g/ha
Method in brief: as §1

Hordeum vulgare [10] = test: Preemergence herbicidal activity (Example 67); details: pre, 800 g/ha
Method in brief: as §1

Triticum aestivum [11] = test: Preemergence herbicidal activity (Example 67); details: pre, 800 g/ha
Method in brief: as §1

Amaranthus retroflexus [12] = test: Postemergence herbicidal activity (Example 67); details: pos, 800 g/ha
Method in brief: (§2)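 Seedlings aged 3–6 weeks received a postemergence spray of compound in acetone with 0.5% Triton X-155, diluted in water, at 800 g/ha in 400 L/ha. Plants were then kept in the greenhouse and rated 10–21 days after treatment.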

Ipomoea hederacea [13] = test: Postemergence herbicidal activity (Example 67); details: pos, 800 g/ha
Method in brief: as §2

Hordeum vulgare [14] = test: Postemergence herbicidal activity (Example 67); details: pos, 800 g/ha
Method in brief: as §2

Triticum aestivum [15] = test: Postemergence herbicidal activity (Example 67); details: pos, 800 g/ha
Method in brief: as §2

Veronica persica [16] = test: Postemergence herbicidal activity (Example 67); details: pos, 800 g/ha
Method in brief: as §2

Chenopodium album [17] = test: Postemergence herbicidal activity (Example 67); details: pos, 800 g/ha
Method in brief: as §2

Abutilon theophrasti [18] = test: Postemergence herbicidal activity (Example 67); details: pos, 800 g/ha
Method in brief: as §2

Setaria viridis [19] = test: Postemergence herbicidal activity (Example 67); details: pos, 800 g/ha
Method in brief: as §2

Alopecurus myosuroides [20] = test: Postemergence herbicidal activity (Example 67); details: pos, 800 g/ha
Method in brief: as §2

Zea mays [21] = test: Postemergence herbicidal activity (Example 67); details: pos, 800 g/ha
Method in brief: as §2

Galium aparine [22] = test: Postemergence herbicidal activity (Example 67); details: pos, 800 g/ha
Method in brief: as §2

Helianthus annuus [23] = test: Postemergence herbicidal activity (Example 67); details: pos, 800 g/ha
Method in brief: as §2

Setaria viridis [24] = test: Preemergence herbicidal activity (Example 67); details: pre, 800 g/ha
Method in brief: as §1

| Structure (SMILES) | ALO MY rating (Alopecurus myosuroides [1]) | AMA RE rating (Amaranthus retroflexus [2]) | IPO HE rating (Ipomoea hederacea [3]) | VER PE rating (Veronica persica [4]) | CHE AL rating (Chenopodium album [5]) | ABU TH rating (Abutilon theophrasti [6]) | ZEA MX rating (Zea mays [7]) | GAL AP rating (Galium aparine [8]) | HEL AN rating (Helianthus annuus [9]) | HOR VW rating (Hordeum vulgare [10]) | TRZ AW rating (Triticum aestivum [11]) | AMA RE rating (Amaranthus retroflexus [12]) | IPO HE rating (Ipomoea hederacea [13]) | HOR VW rating (Hordeum vulgare [14]) | TRZ AW rating (Triticum aestivum [15]) | VER PE rating (Veronica persica [16]) | CHE AL rating (Chenopodium album [17]) | ABU TH rating (Abutilon theophrasti [18]) | SET VI rating (Setaria viridis [19]) | ALO MY rating (Alopecurus myosuroides [20]) | also measured |
| --- | --- | --- | --- | --- | --- | --- | --- | --- | --- | --- | --- | --- | --- | --- | --- | --- | --- | --- | --- | --- | --- |
| C[C@H](NC(=O)c1nsc(-c2ccccc2)n1)c1ccccc1 [Example 48, (S)-5-(Phenyl)-[1,2,4]thiadiazole-3-carboxylic acid, 1-(phenylethyl)amide] | 0 | 5 (45-64%) | 0 | 5 (45-64%) | 0 | 0 | 0 | 0 | 0 | 0 | 2 (6-15%) | 7 (80-90%) | 7 (80-90%) | 7 (80-90%) | 5 (45-64%) | 8 (91-99%) | 7 (80-90%) | 8 (91-99%) | 8 (91-99%) | 6 (65-79%) | ZEA MX rating (Zea mays [21]): 5 (45-64%); GAL AP rating (Galium aparine [22]): 7 (80-90%); HEL AN rating (Helianthus annuus [23]): 9 (100% effect); SET VI rating (Setaria viridis [24]): 0 |
| O=C(NCc1cccs1)c1nsc(-c2ccccc2)n1 [Example 49] | 0 | 0 | 0 | 0 | 0 | 0 | 0 | 0 | 1 (1-5%) | 0 | 0 | 3 (16-29%) | 3 (16-29%) | 4 (30-44%) | 3 (16-29%) | 3 (16-29%) | 4 (30-44%) | 4 (30-44%) | 8 (91-99%) | 5 (45-64%) | ZEA MX rating (Zea mays [21]): 4 (30-44%); GAL AP rating (Galium aparine [22]): 6 (65-79%); HEL AN rating (Helianthus annuus [23]): 8 (91-99%); SET VI rating (Setaria viridis [24]): 0 |
| O=C(NCc1cccs1)c1nc(-c2ccccc2F)ns1 [Example 50] | 3 (16-29%) | 0 | 0 | 0 | 0 | 0 | 0 | 0 | 0 | 1 (1-5%) | 0 | 0 | 0 | 2 (6-15%) | 1 (1-5%) | 0 | 3 (16-29%) | 0 | 5 (45-64%) | 0 | ZEA MX rating (Zea mays [21]): 0; GAL AP rating (Galium aparine [22]): 2 (6-15%); HEL AN rating (Helianthus annuus [23]): 3 (16-29%); SET VI rating (Setaria viridis [24]): 0 |
| COc1ccc(-c2nsc(C(=O)Nc3cccc4c3CCCC4)n2)cc1 [Example 55] | 0 | 0 | 3 (16-29%) | 2 (6-15%) | 0 | 1 (1-5%) | 0 | 0 | 0 | 0 | 0 | 0 | 0 | 2 (6-15%) | 1 (1-5%) | 0 | 0 | 0 | 4 (30-44%) | 0 | ZEA MX rating (Zea mays [21]): 3 (16-29%); GAL AP rating (Galium aparine [22]): 3 (16-29%); HEL AN rating (Helianthus annuus [23]): 2 (6-15%); SET VI rating (Setaria viridis [24]): 0 |
| C[C@H](NC(=O)c1nsc(-c2ccccc2F)n1)c1ccccc1 [Example 56, (S)-5-(2-Fluorophenyl)-[1,2,4]thiadiazole-3-carboxylic acid, 1-(phenylethyl)amide] | 0 | 5 (45-64%) | 3 (16-29%) | 4 (30-44%) | 2 (6-15%) | 2 (6-15%) | 0 | 0 | 0 | 0 | 0 | 7 (80-90%) | 8 (91-99%) | 5 (45-64%) | 5 (45-64%) | 7 (80-90%) | 4 (30-44%) | 9 (100% effect) | 8 (91-99%) | 5 (45-64%) | ZEA MX rating (Zea mays [21]): 4 (30-44%); GAL AP rating (Galium aparine [22]): 6 (65-79%); HEL AN rating (Helianthus annuus [23]): 8 (91-99%); SET VI rating (Setaria viridis [24]): 2 (6-15%) |
| O=C(Nc1ccc(F)cc1F)c1nsc(-c2cccc(C(F)(F)F)c2)n1 [Example 62] | 3 (16-29%) | 0 | 3 (16-29%) | 0 | 0 | 1 (1-5%) | 0 | 0 | 0 | 0 | 0 | 0 | 1 (1-5%) | 0 | 1 (1-5%) | 0 | 1 (1-5%) | 0 | 5 (45-64%) | 0 | ZEA MX rating (Zea mays [21]): 1 (1-5%); GAL AP rating (Galium aparine [22]): 0; HEL AN rating (Helianthus annuus [23]): 0; SET VI rating (Setaria viridis [24]): 0 |
| O=C(Nc1ccc(F)cc1)c1nsc(-c2cccc(C(F)(F)F)c2)n1 [Example 63] | 4 (30-44%) | 0 | 3 (16-29%) | 0 | 0 | 0 | 0 | 0 | 0 | 0 | 2 (6-15%) | 0 | 0 | 1 (1-5%) | 0 | 0 | 0 | 1 (1-5%) | 3 (16-29%) | 0 | ZEA MX rating (Zea mays [21]): 0; GAL AP rating (Galium aparine [22]): 0; HEL AN rating (Helianthus annuus [23]): 0; SET VI rating (Setaria viridis [24]): 2 (6-15%) |
